In US20020045638A1, “Method of treating estrogen receptor positive carcinoma” (priority 2000, published 2002):
Where two headings read alike, the source gives them in different places.

Tests used:
[1] = system: MCF-7 human breast cancer cells; experiment: Inhibition of growth of MCF-7 breast cancer cells (MTT), with MacSynergy II synergy analysis; conditions: for inhibition at 0.05 µM / inhibition at 0.1 µM / inhibition at 0.2 µM / inhibition at 0.4 µM / inhibition at 0.005 µM / inhibition at 0.01 µM: Homo sapiens, MCF7, read-out: Percent Inhibition, Table E;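 as to all read-outs here: cells treated five or six days with single agents or combinations, growth read by MTT, synergy surface equals observed % inhibition minus Bliss additive prediction, values under 0% signal antagonism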
Experimental: In these test procedures, rapamycin 42-ester with 3-hydroxy-2-(hydroxymethyl)-2-methylpropionic acid was used as a representative rapamycin, and 2-(4-hydroxy-phenyl)-3-methyl-1-[4-(2-piperdin-1-yl-ethoxy)-benzyl-1 H-indol-5-ol, raloxifene, and 4-hydroxytamoxifen were used as representative antiestrogens.
MCF-7 human breast cancer cells were maintained at 37° C. in a humidified atmosphere of 5% CO2 and 95% air in IMEM medium supplemented with 10% fetal bovine serum. […] One day before the experiment, cells were plated in 96-well plates at a cell density of 2,500 cells/well in IMEM medium supplemented with 10% fetal bovine serum. The next day, cells were treated with various concentrations of antiestrogen and rapamycin 42-ester with 3-hydroxy-2-(hydroxymethyl)-2-methylpropionic acid (referred to as CCI-779 in the tables below). Five or six-days later, cell growth was monitored. MTT solution (20 ul) (0.5 mg/ml) was added to each well and cells were incubated for an additional 4 h. The solution was then removed and 150 ul of DMSO added. The intensity of dark blue color corresponding to number of cells was read at 540 nm with an automated plate reader.
Briefly, theoretical additive interactions were calculated from the dose-response curves of each individual drug based on Bliss independence model. The calculated additive surface was then subtracted from the experimental surface to obtain a synergy surface representing % inhibition above the calculated additive value-synergy index. […] Likewise, any peak below the 0% plane is indicative of antagonism.

MCF-7 tumors = experiment: Growth of MCF-7 breast carcinoma implanted in nude mice; type: in vivo; conditions: for Tumor size (mean ± standard error): 5 mg/kg CCI-779 PO q2d days 1-9
Experimental: In the third standard pharmacological test procedure, mice implanted with MCF-7 tumors were treated with a combination of ERA-923 and CCI-779. […] ERA-923 was dissolved in 1% Tween 80 and 0.9% NaCl Injection USP. Drug was aliquoted into daily doses using 10.0 ml glass bottles and frozen at −20° C. until needed. CCI-779 was made fresh using a 5% ETOH, 4.9% Phosal and 0.1% Tween 80 in Sterile Water. 0.2 ml of each drug was given orally starting the day after tumor implantation. ERA 923 was given daily for the duration of the experiment and CCI-779 was given every other day for the first 10 days. The control vehicles were given on the same regime as the drugs. MCF7 cells were cultured in IMEM containing 5% Fetal Bovine Serum with passages varying from 2-20. After trypsinization tumors were resuspended in IMEM with 2% Serum at a 1:1 ratio with Matrigel. 10 million cells were injected subcutaneously into the mammary tissue of each mouse using a 1.0 ml tuberculin syringe with a 23 3/4 gauge needle. Five to six week old female ovariectomized athymic nu/nu mice (Charles River Labs: Wilmington, Mass.) weighing from 20.0-23.0 g were used. The animals were housed 5 to a cage in a Microisolator Open Rack System (Lab Products: Maywood, N.J.). Each mouse received a 17β-Estradiol pellet (0.72 mg/pellet-60 day release). The pellets were injected with a 10 gauge trochar into the lateral side of the neck between the ear and the shoulder 1-2 weeks prior to tumor injection. Control groups were 15 mice/vehicle whereas the drug groups were 10 mice/drug. Tumors were measured weekly by means of solar calipers (Cole-Parmer Instuments: Vernon Hills, Ill.) and tumor weights were estimated from tumor diameters by the following formula:
Tumor weight (mg)=tumor length (mm)×tumor width (mm)^2/2.
Mice were euthanized 36 days after tumor injection by CO2 inhalation. […] Nude mice bearing MCF-7 tumors were given ERA-923, CCI-779 or the combination of both drugs.

Work on `CO[C@H]1C[C@@H]2CC[C@@H](C)[C@@](O)(O2)C(=O)C(=O)N2CCCC[C@H]2C(=O)O[C@H]([C@H](C)C[C@@H]2CC[C@@H](OC(=O)C(C)(CO)CO)[C@H](OC)C2)CC(=O)[C@H](C)/C=C(\C)[C@@H](O)[C@@H](OC)C(=O)[C@H](C)C[C@H](C)/C=C/C=C/C=C/1C` [CCI-779, rapamycin 42-ester with 3-hydroxy-2-(hydroxymethyl)-2-methylpropionic acid] yielded an inhibition at 0.05 µM ([1]; CCI-779 10 nM + CCI-779 50 nM) of 51.2%, an inhibition at 0.1 µM ([1]; CCI-779 10 nM + CCI-779 100 nM) of 54.8% and an inhibition at 0.2 µM ([1]; CCI-779 10 nM + CCI-779 200 nM) of 62.4%. The inhibition at 0.4 µM ([1]; CCI-779 10 nM + CCI-779 400 nM) was 65.2%, the inhibition at 0.005 µM ([1]; CCI-779 50 nM + CCI-779 5 nM) was 48.3% and the inhibition at 0.01 µM ([1]; CCI-779 50 nM + CCI-779 10 nM) was 46.9%. For the same compound, the inhibition at 0.05 µM ([1]; CCI-779 50 nM + CCI-779 50 nM) was 50.3%, the inhibition at 0.1 µM ([1]; CCI-779 50 nM + CCI-779 100 nM) was 54.6% and the inhibition at 0.2 µM ([1]; CCI-779 50 nM + CCI-779 200 nM) was 57.5%. The inhibition at 0.4 µM ([1]; CCI-779 50 nM + CCI-779 400 nM) was 60.2%, the inhibition at 0.005 µM ([1]; CCI-779 100 nM + CCI-779 5 nM) was 54.2% and the inhibition at 0.01 µM ([1]; CCI-779 100 nM + CCI-779 10 nM) was 52.9%. The inhibition at 0.05 µM ([1]; CCI-779 100 nM + CCI-779 50 nM) was 51%, the inhibition at 0.1 µM ([1]; CCI-779 100 nM + CCI-779 100 nM) was 55% and the inhibition at 0.2 µM ([1]; CCI-779 100 nM + CCI-779 200 nM) was 62.5%. It also gave an inhibition at 0.4 µM ([1]; CCI-779 100 nM + CCI-779 400 nM) of 66.8%, an inhibition at 0.005 µM ([1]; CCI-779 200 nM + CCI-779 5 nM) of 51.4% and an inhibition at 0.01 µM ([1]; CCI-779 200 nM + CCI-779 10 nM) of 57.1%. It also gave an inhibition at 0.05 µM ([1]; CCI-779 200 nM + CCI-779 50 nM) of 57.2%, an inhibition at 0.1 µM ([1]; CCI-779 200 nM + CCI-779 100 nM) of 59% and an inhibition at 0.2 µM ([1]; CCI-779 200 nM + CCI-779 200 nM) of 65.5%. The inhibition at 0.4 µM ([1]; CCI-779 200 nM + CCI-779 400 nM) was 66.8%, the inhibition at 0.005 µM ([1]; CCI-779 400 nM + CCI-779 5 nM) was 61.1% and the inhibition at 0.01 µM ([1]; CCI-779 400 nM + CCI-779 10 nM) was 61.1%. The inhibition at 0.05 µM ([1]; CCI-779 400 nM + CCI-779 50 nM) was 60%, the inhibition at 0.1 µM ([1]; CCI-779 400 nM + CCI-779 100 nM) was 62% and the inhibition at 0.2 µM ([1]; CCI-779 400 nM + CCI-779 200 nM) was 66.3%. The inhibition at 0.4 µM ([1]; CCI-779 400 nM + CCI-779 400 nM) was 69.7%, the “concentrations at which synergy was more pronounced” value ([1]; MCF-7, ERA-923 in combination with CCI-779 (Table A)) was 300 to 400 nM and the “Percent Inhibition” value ([1]; Table A, CCI-779 5 nM, ERA-923 0 nM) was −13.25%. For the same compound, the “Percent Inhibition” value ([1]; Table A, CCI-779 10 nM, ERA-923 0 nM) was −1.54%, the “Percent Inhibition” value ([1]; Table A, CCI-779 50 nM, ERA-923 0 nM) was 26.68% and the “Percent Inhibition” value ([1]; Table A, CCI-779 100 nM, ERA-923 0 nM) was 37.93%. The “Percent Inhibition” value ([1]; Table A, CCI-779 200 nM, ERA-923 0 nM) was 34.99%, the “Percent Inhibition” value ([1]; Table A, CCI-779 400 nM, ERA-923 0 nM) was 39.43% and the “Percent Inhibition” value ([1]; Table E, CCI-779 5 nM + CCI-779 0 nM) was 0.59%. The “Percent Inhibition” value ([1]; Table E, CCI-779 10 nM + CCI-779 0 nM) was 4.91%, the “Percent Inhibition” value ([1]; Table E, CCI-779 50 nM + CCI-779 0 nM) was 36.55% and the “Percent Inhibition” value ([1]; Table E, CCI-779 100 nM + CCI-779 0 nM) was 42.35%. The “Percent Inhibition” value ([1]; Table E, CCI-779 200 nM + CCI-779 0 nM) was 45.87%, the “Percent Inhibition” value ([1]; Table E, CCI-779 400 nM + CCI-779 0 nM) was 55.78% and the “Tumor size (mean ± standard error)” value (MCF-7 tumors; day 14 after tumor implantation) was 260 ± 18 mg. The “Tumor size (mean ± standard error)” value (MCF-7 tumors; day 21 after tumor implantation) was 485 ± 53 mg, the “Tumor size (mean ± standard error)” value (MCF-7 tumors; day 28 after tumor implantation) was 704 ± 63 mg and the “Tumor size (mean ± standard error)” value (MCF-7 tumors; day 36 after tumor implantation) was 1123 ± 134 mg. The “inhibition of tumor growth” value (MCF-7 tumors; nude mice bearing MCF-7 tumors, growth inhibition=experimental value−200 (baseline)/control value −200) was “approximately 35%”.
